Experimental data as given in ChEMBL document CHEMBL5108079, “Therapeutic Activity of the Lansoprazole Metabolite 5-Hydroxy Lansoprazole Sulfide in Triple-Negative Breast Cancer by Inhibiting the Enoyl Reductase of Fatty Acid Synthase” (J Med Chem, 2022).
Activity calls are given as the source filed them. The calls are words filed in the database; no cut-off is given here.

Assays:
[1] = target: T1, Fatty acid synthase (Homo sapiens, UniProt P49327); test: Inhibition of FASN in human MDA-MB-231 cells overexpressing FASN assessed as decrease in endogenous FFA level at IC50 concentration incubated for 72 hrs; type: cell-based
Target sequence in this assay (P49327 whole entry, looked up): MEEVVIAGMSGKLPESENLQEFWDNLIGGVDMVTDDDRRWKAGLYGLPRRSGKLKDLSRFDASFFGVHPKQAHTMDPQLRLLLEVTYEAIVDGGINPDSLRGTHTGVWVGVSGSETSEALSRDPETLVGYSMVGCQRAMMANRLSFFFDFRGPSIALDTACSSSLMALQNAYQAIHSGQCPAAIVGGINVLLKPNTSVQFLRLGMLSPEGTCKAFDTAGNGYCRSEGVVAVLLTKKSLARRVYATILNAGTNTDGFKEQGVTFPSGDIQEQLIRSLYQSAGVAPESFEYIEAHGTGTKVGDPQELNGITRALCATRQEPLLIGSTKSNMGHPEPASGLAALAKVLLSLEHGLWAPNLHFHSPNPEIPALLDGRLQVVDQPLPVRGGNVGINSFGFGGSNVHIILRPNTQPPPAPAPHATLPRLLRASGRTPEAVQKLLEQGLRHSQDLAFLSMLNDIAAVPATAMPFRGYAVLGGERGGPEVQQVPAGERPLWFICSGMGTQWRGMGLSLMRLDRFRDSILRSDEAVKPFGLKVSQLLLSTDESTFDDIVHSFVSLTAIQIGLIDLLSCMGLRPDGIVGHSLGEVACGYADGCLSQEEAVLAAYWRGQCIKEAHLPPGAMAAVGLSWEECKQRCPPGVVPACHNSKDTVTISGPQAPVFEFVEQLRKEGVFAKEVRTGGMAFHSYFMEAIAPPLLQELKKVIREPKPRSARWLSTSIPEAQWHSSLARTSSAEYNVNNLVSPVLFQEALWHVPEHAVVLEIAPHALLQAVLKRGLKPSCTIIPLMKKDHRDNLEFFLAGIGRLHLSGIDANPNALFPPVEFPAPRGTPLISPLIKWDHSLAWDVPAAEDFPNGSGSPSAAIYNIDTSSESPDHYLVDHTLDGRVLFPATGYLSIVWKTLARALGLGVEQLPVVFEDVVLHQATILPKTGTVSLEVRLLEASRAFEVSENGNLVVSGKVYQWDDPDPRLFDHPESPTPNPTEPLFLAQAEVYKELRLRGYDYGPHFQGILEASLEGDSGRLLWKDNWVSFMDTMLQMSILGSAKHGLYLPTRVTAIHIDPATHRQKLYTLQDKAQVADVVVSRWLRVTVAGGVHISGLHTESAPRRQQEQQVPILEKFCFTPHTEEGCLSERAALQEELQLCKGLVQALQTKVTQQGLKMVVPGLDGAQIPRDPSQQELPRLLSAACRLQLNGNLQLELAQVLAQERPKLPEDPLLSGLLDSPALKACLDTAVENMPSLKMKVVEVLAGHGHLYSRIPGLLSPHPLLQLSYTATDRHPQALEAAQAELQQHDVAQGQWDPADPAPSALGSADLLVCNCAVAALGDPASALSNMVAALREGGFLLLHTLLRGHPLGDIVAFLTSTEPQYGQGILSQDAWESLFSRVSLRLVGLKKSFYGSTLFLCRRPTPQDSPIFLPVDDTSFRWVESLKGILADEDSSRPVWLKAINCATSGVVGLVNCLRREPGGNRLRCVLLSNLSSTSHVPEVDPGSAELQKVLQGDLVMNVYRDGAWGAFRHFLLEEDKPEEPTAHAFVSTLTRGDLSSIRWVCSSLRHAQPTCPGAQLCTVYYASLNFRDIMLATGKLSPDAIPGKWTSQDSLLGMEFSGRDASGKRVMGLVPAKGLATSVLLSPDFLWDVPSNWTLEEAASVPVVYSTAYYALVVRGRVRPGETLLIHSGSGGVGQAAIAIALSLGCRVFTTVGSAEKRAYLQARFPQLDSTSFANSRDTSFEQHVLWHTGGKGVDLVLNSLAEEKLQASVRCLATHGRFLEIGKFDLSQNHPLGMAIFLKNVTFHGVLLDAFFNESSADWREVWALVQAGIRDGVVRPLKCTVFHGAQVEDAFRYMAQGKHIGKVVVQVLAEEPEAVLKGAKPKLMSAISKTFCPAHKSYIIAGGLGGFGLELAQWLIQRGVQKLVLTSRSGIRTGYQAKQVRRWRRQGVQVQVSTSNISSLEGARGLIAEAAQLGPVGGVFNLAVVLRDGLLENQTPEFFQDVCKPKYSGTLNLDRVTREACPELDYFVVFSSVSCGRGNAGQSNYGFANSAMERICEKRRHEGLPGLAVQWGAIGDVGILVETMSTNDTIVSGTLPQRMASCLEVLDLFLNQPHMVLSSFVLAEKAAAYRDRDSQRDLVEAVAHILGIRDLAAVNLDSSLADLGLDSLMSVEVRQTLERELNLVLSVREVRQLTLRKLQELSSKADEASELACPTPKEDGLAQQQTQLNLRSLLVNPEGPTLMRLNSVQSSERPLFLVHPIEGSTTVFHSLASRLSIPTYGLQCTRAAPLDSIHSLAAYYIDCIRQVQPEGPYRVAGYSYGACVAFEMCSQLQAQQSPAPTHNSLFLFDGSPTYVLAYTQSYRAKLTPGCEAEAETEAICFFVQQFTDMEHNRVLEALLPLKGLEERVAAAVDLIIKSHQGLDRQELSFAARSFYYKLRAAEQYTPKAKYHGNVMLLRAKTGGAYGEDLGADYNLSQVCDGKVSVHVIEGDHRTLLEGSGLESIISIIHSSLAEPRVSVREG

[2] = Induction of DNA damage in human KTB39 cells assessed as increase in gamma-H2AX level at IC50 concentration by Western blot analysis; type: toxicity, cell-based
[3] = tested on: MDA-MB-231; test: Induction of DNA damage in human MDA-MB-231 cells assessed as inhibition of PARP-1 expression incubated for 72 hrs by Western blot analysis; type: functional, cell-based; conditions: dose 2.5-10 µM, DDE = dose-dependent effect
[4] = tested on: MDA-MB-468; test: Induction of DNA damage in human MDA-MB-468 cells assessed as increase in gamma-H2AX level measured after 72 hrs by Western blot analysis; type: functional, cell-based; conditions: dose 2.5-10 µM, DDE = dose-dependent effect
[5] = tested on: MDA-MB-231; test: Inhibition of DNA repair activity in human MDA-MB-231 cells assessed as inhibition of NHEJ activity measured every 12 hrs for 72 hrs by luciferase based host cell reactivation assay; type: functional
[6] = tested on: MDA-MB-231; test: Induction of DNA damage in human MDA-MB-231 cells assessed as increase in gamma-H2AX level measured after 72 hrs by Western blot analysis; type: functional, cell-based; conditions: dose 2.5-10 µM, DDE = dose-dependent effect
[7] = tested on: MDA-MB-231; test: Induction of DNA damage in human MDA-MB-231 cells assessed as decrease in PARP-1 mRNA level at 2.5 to 10 uM incubated for 72 hrs by RT-PCR analysis; type: functional, cell-based; conditions: dose 2.5-10 µM
[8] = tested on: MDA-MB-468; test: Induction of DNA damage in human MDA-MB-468 cells nucleus assessed as increase in gamma-H2AX punctate staining at 20 uM by DAPI staining based confocal microscopic imaging analysis; type: functional, cell-based
[9] = tested on: MDA-MB-468; test: Inhibition of DNA repair activity in human MDA-MB-468 cells assessed as inhibition of NHEJ activity measured every 12 hrs for 72 hrs by luciferase based host cell reactivation assay; type: functional
[10] = tested on: MDA-MB-468; test: Induction of DNA damage in human MDA-MB-468 cells assessed as decrease in PARP-1 mRNA level at 2.5 to 10 uM incubated for 72 hrs by RT-PCR analysis; type: functional, cell-based; conditions: dose 2.5-10 µM
[11] = Induction of DNA damage in human KTB34 cells assessed as increase in gamma-H2AX level at IC50 concentration by Western blot analysis; type: toxicity, cell-based
[12] = target: T1, Fatty acid synthase; test: Inhibition of human FASN enoyl reductase activity using crotonyl CoA as substrate assessed as inhibition of substrate […] measured every 1 min for 10 mins in the presence of NADPH by fluorescence based assay
Target sequence in this assay (P49327 whole entry): as the sequence (P49327 whole entry, looked up) above

[13] = tested on: MDA-MB-231; test: Induction of DNA damage in human MDA-MB-231 cells nucleus assessed as increase in gamma-H2AX punctate staining at 10 uM by DAPI staining based confocal microscopic imaging analysis; type: functional, cell-based
[14] = tested on: MDA-MB-468; test: Induction of DNA damage in human MDA-MB-468 cells assessed as inhibition of PARP-1 expression incubated for 72 hrs by Western blot analysis; type: functional, cell-based; conditions: dose 2.5-10 µM, DDE = dose-dependent effect
[15] = Induction of DNA damage in human KTB22 cells assessed as increase in gamma-H2AX level at IC50 concentration by Western blot analysis; type: toxicity, cell-based
[16] = tested on: MDA-MB-468; test: Induction of ROS production in human MDA-MB-468 cells measured after 2 hrs by fluorescence based assay; type: functional, cell-based
[17] = tested on: MDA-MB-231; test: Induction of ROS production in human MDA-MB-231 cells measured after 2 hrs by fluorescence based assay; type: functional, cell-based
[18] = tested on: Mus musculus; test: In vivo inhibition of […] in NSG mouse xenografted with human MDA-MB-231 cells assessed as increase in gamma-H2AX level in tumor at 100 mg/kg, ip administered once daily for 22 days by Western blot analysis; type: functional, organism-based; conditions: time 22.0 day
[19] = tested on: MDA-MB-231; test: Antitumor activity against human MDA-MB-231 cells xenografted in NSG mouse assessed as reduction in tumor wet weight at 100 mg/kg, ip administered once daily for 22 days; type: functional, organism-based; conditions: time 22.0 day
[20] = tested on: MDA-MB-468; test: Induction of apoptosis in human MDA-MB-468 cells assessed as increase in cleaved PARP1 level incubated for 72 hrs by Western blot analysis; type: functional, cell-based; conditions: dose 2.5-10 µM, DDE = dose-dependent effect
[21] = tested on: Mus musculus; test: In vivo inhibition of […] in NSG mouse xenografted with human MDA-MB-231 cells assessed as reduction of PARP1 level in tumor at 100 mg/kg, ip administered once daily for 22 days by Western blot analysis; type: functional, organism-based; conditions: time 22.0 day
[22] = tested on: MDA-MB-231; test: Effect on cell cycle distribution in human MDA-MB-231 cells assessed as accumulation of cells in sub-G1 phase at 10 uM incubated for 72 hrs by PI staining based flow cytometric analysis; type: functional
[23] = tested on: Mus musculus; test: In vivo inhibition of […] in NSG mouse xenografted with human MDA-MB-231 cells assessed as reduction of FASN level in tumor at 100 mg/kg, ip administered once daily for 22 days by Western blot analysis; type: functional, organism-based; conditions: time 22.0 day
[24] = tested on: MDA-MB-468; test: Induction of apoptosis in human MDA-MB-468 cells at 20 uM incubated for 72 hrs by Annexin-V/PI staining based flow cytometric analysis; type: functional, cell-based
[25] = Toxicity in NSG mouse xenografted with human MDA-MB-231 cells assessed as effect on body weight at 100 mg/kg, ip administered once daily for 22 days; type: organism-based; conditions: in vivo, 528 h, time 22 day
[26] = tested on: Mus musculus; test: In vivo inhibition of […] in NSG mouse xenografted with human MDA-MB-231 cells assessed as increase in gamma-H2AX level in tumor at 100 mg/kg, ip administered once daily for 22 days by immunohistochemical analysis; type: functional, organism-based; conditions: time 22.0 day
[27] = tested on: MDA-MB-468; test: Antiproliferative activity against human MDA-MB-468 cells assessed as reduction in cell survival incubated for 72 hrs by methylene blue cell survival assay; type: functional, cell-based
[28] = tested on: MDA-MB-231; test: Induction of apoptosis in human MDA-MB-231 cells assessed as increase in cleaved PARP1 level incubated for 72 hrs by Western blot analysis; type: functional, cell-based; conditions: dose 2.5-10 µM, DDE = dose-dependent effect
[29] = tested on: Mus musculus; test: In vivo inhibition of […] in NSG mouse xenografted with human MDA-MB-231 cells assessed as reduction of PARP1 level in tumor at 100 mg/kg, ip administered once daily for 22 days by immunohistochemical analysis; type: functional, organism-based; conditions: time 22.0 day
[30] = tested on: MDA-MB-231; test: Induction of apoptosis in human MDA-MB-231 cells at 10 uM incubated for 72 hrs by Annexin-V/PI staining based flow cytometric analysis; type: functional, cell-based
[31] = tested on: MDA-MB-436; test: Antiproliferative activity against human MDA-MB-436 cells assessed as reduction in cell survival incubated for 72 hrs by methylene blue cell survival assay; type: functional, cell-based
[32] = tested on: MDA-MB-231; test: Induction of apoptosis in human MDA-MB-231 cells assessed as increase in cleaved caspase 3 level incubated for 72 hrs by Western blot analysis; type: functional, cell-based; conditions: dose 2.5-10 µM, DDE = dose-dependent effect
[33] = tested on: HCC1937; test: Antiproliferative activity against human HCC1937 cells assessed as reduction in cell survival incubated for 72 hrs by methylene blue cell survival assay; type: functional, cell-based
[34] = tested on: MDA-MB-231; test: Antitumor activity against human MDA-MB-231 cells xenografted in NSG mouse assessed as reduction in tumor growth at 100 mg/kg, ip administered once daily for 22 days; type: functional, organism-based; conditions: time 22.0 day
[35] = tested on: MDA-MB-231; test: Antiproliferative activity against human MDA-MB-231 cells assessed as reduction in cell survival incubated for 72 hrs by methylene blue cell survival assay; type: functional, cell-based
[36] = tested on: Mus musculus; test: In vivo inhibition of […] in NSG mouse xenografted with human MDA-MB-231 cells assessed as reduction of FASN level in tumor at 100 mg/kg, ip administered once daily for 22 days by immunohistochemical analysis; type: functional, organism-based; conditions: time 22.0 day
[37] = tested on: MDA-MB-468; test: Induction of apoptosis in human MDA-MB-468 cells assessed as increase in cleaved caspase 3 level incubated for 72 hrs by Western blot analysis; type: functional, cell-based; conditions: dose 2.5-10 µM, DDE = dose-dependent effect

Structure (SMILES)	inhibition [1]	Activity [2]	Activity [3]	Activity [4]	inhibition [5]	Activity [6]	Activity [7]	Activity [8]	inhibition [9]	Activity [10]	Activity [11]	Activity [13]	Activity [14]	Activity [15]	also measured
Cc1c(OCC(F)(F)F)ccnc1C[S+]([O-])c1nc2ccccc2[nH]1 (stereo unspecified) [LANSOPRAZOLE]	Active	Toxic	Dde	Dde	Active	Dde	Active	Active	Active	Active	Toxic	Active	Dde	Toxic	Ki [12]: 1700 nM
CC1=CC(=O)c2ccccc2C1=O	–	–	–	–	–	–	–	–	–	–	–	–	–	–	Activity [16]: Active; Activity [17]: Active
Cc1c(OCC(F)(F)F)ccnc1CSc1nc2ccc(O)cc2[nH]1	Active	Toxic	Dde	Dde	Active	Dde	Active	Active	Active	Active	Toxic	Active	Dde	Toxic	inhibition [18]: Active; Activity [19]: Active; Activity [20]: Dde; inhibition [21]: Active; Activity [22]: Active; inhibition [23]: Active; Activity [24]: Active; Activity [25]: Non-Toxic; inhibition [26]: Active; Activity [27]: Active; Activity [28]: Dde; inhibition [29]: Active; Activity [30]: Active; Activity [31]: Active; Activity [32]: Dde; Activity [33]: Active; Activity [34]: Active; Activity [35]: Active; inhibition [36]: Active; Activity [37]: Dde
